Converted amounts (≈) assume the structure as drawn.
Columns and labels:
[1] = Aqueous solubility in PBS pH 7.4; format: physicochemical; details: phosphate buffered saline, aqueous buffer, kinetic from dmso stock, PBS pH 7.4, room temperature
Description: The following procedure was used to determine the aqueous solubility of a test compound in phosphate buffered saline (PBS—NaCl 137 mM, KCl 2.7 mM, Na2HPO4 8.1 mM, KH2PO4 1.5 mM, pH 7.4) in 96-well plate format by HPLC-UV/VIS analysis. The test compound was prepared at 200 μM in PBS from a 10 mM DMSO stock solution. The final DMSO concentration was 2%. The PBS buffer samples were mixed thoroughly followed by incubation at room temperature for 24 h. At the end of the incubation, the PBS buffer samples were centrifuged and supernatants analyzed by HPLC. The aqueous solubility (μM) of the test compound in PBS was determined by comparing the peak area of the principal peak in the calibration standard (200 μM) with the peak area of the corresponding peak in each of the PBS samples. The range of the assay was approximately 0.5 μM to 200 μM. The reference compounds used in each assay were metoprolol, rifampicin, ketoconazole, phenytoin, haloperidol, simvastatin, diethylstilbestrol, and tamoxifen ranking from fully soluble (200 μM) to poorly soluble (<1 μM).

[2] = Metabolic stability in dog hepatocytes; format: in vitro ADME; details: pooled cryopreserved hepatocytes; beagle dog hepatocytes, 2 μM compound, 500,000 cells/mL, 37° C.; read-out: Dog Hepatocyte Stability (T½: min)
Description: The following procedure was used to determine the stability of test compounds in beagle dog hepatocytes in a 96-well plate format. The test compounds, including the controls, imipramine and 7-ethoxycoumarin, were dissolved at 10 mM in DMSO, followed by further 5-fold dilution with DMSO to 2 mM. Pooled cryopreserved beagle dog hepatocytes were thawed and transferred into complete medium. Cells were gently centrifuged (700 rpm for 5 min) and the pellet rinsed with KHB (Krebs Henseleit buffer). Cells were resuspended, counted using Trypan blue, and adjusted to 1 million cells/mL in KHB buffer. The 2 mM compound stock solutions were diluted 10-fold with acetonitrile, followed by a further 50-fold dilution with KHB buffer. 200 μL of these compound solutions were transferred to 96-well polypropylene assay plates and an equal volume of the hepatocyte solution was added and mixed to initiate the reaction (final assay concentrations were 2 μM compound and 500,000 cells/mL). Assay plates were incubated at 37° C. in 5% CO2 with gentle agitation. 50 μL aliquots were removed at multiple time points out to 180 minutes and quenched with 6 volumes of cold acetonitrile (containing 250 ng/mL of carbutamide and chrysin as internal standards) to terminate the reaction and precipitate protein. Quenched samples were maintained on ice. The quenched samples were centrifuged at 2000×g (3100 rpm) for 10 minutes at 4° C. 50 μL aliquots of the supernatants were removed and diluted with 100 μL Milli-Q water to reduce the % organic content prior to bioanalysis by LC-MS/MS. Peak areas corresponding to the test compound were recorded. The compound remaining was calculated by comparing the peak area at each time point to time zero. Data were analyzed and results were calculated using Microsoft Excel 2010.

Thrombin = molecular target: T1, Thrombin (Homo sapiens, UniProt P00734); experiment: Dose response assay for protease inhibitors: thrombin; format: biochemical; details: ratio versus Factor XIa
T1 construct: Thrombin; 0.2 μM in 50% glycerol (7.34 μg/mL)

[3] = Plasma protein binding by equilibrium dialysis; format: in vitro ADME; details: both sexes, pooled plasma, pH 7.4, human plasma protein binding, read-out: PPB
Description: The following procedure was used to determine the plasma protein binding of a test compound in pooled plasma from human (mixed gender) via equilibrium dialysis in a 96-well plate format. The dialysate compartment was loaded with phosphate-buffered saline (pH 7.4) and the sample side was loaded with plasma spiked with the test compound at a concentration of 10 μM. After loading, samples were covered and incubated for 4 hours at 37° C. After incubation, each compartment was sampled, diluted with acetonitrile/buffer and centrifuged. The supernatants were analyzed by HPLC-MS/MS. The analyte peak areas obtained from HPLC-MS/MS analysis of each sample were used to calculate protein binding according to the following equation (Equation 4):
where: AREAp=Peak area of analyte in protein matrix; AREAb=Peak area of analyte in buffer. The amount measured in the plasma compartment included both free and bound drug, while that on the buffer side represented free drug only; the differences were used to calculate the percentage plasma protein bound. Three reference compounds were tested in each assay: acebutolol, quinidine and warfarin.

| Compound | solubility at 24 h [1] [µM] | half-life at 2 μM [2] [h] | Ratio: Thrombin/FXIa (Thrombin) | fraction unbound at 4 h, 10 μM [3] |
| --- | --- | --- | --- | --- |
| CN(C(=O)[C@@H]1[C@@H](Cc2ccnc(N)c2)C(=O)N1C(=O)N[C@@H](C1CC1)C(F)(F)F)c1ncccn1 [Compound 78] | > 100 | < 1 | H (“H” indicates 101-1000) | 0.1 to 0.5 |
| CC[C@@H](NC(=O)N1C(=O)[C@H](Cc2ccnc(NC)c2)[C@H]1C(=O)N(C)c1ncccn1)C1CCCCC1 [Compound 80] | > 100 | < 1 | H (“H” indicates 101-1000) | < 0.05 |
| CC[C@@H](NC(=O)N1C(=O)[C@H](Cc2ccnc(N)c2)[C@H]1C(=O)N(C)c1ncncn1)C1CCCCC1 [Compound 81] | > 100 | < 1 | H (“H” indicates 101-1000) | < 0.05 |
| CN(C(=O)[C@@H]1[C@@H](Cc2ccnc(N)c2)C(=O)N1C(=O)NC(c1ccccc1)c1ccccc1)c1ccncc1 [Compound 82] | > 100 | 2.02 to 4 | H (“H” indicates 101-1000) | 0.05 to 0.09 |
| CCC[C@@H](NC(=O)N1C(=O)[C@H](Cc2ccnc(N)c2)[C@H]1C(=O)N(C)c1ccncc1)c1ccccc1 [Compound 86] | > 100 | > 4 | I (“I” indicates >500) | < 0.05 |
| CC[C@@H](NC(=O)N1C(=O)[C@H](Cc2cc(C)nc(N)c2)[C@H]1C(=O)N(C)c1ccccc1)C1CCCCC1 [Compound 91] | > 100 | 1.02 to 2 | H (“H” indicates 101-1000) | 0.05 to 0.09 |
| CC[C@H](NC(=O)N1C(=O)[C@H](Cc2ccnc(N)c2)[C@H]1C(=O)N(C)c1ccncc1)c1ccccc1C [Compound 97] | > 100 | 2.02 to 4 | H (“H” indicates 101-1000) | 0.1 to 0.5 |
| CC[C@@H](NC(=O)N1C(=O)[C@H](Cc2ccnc(NC(=O)OC(C)(C)C)c2)[C@H]1C(=O)N(C)c1ccncc1)c1cccc(Cl)c1 [Compound 127] | 10 to 100 (≈ 6.07 to 60.7 µg/mL) | < 1 | H (“H” indicates 101-1000) | < 0.05 |

Other lines, results leading:

| solubility at 24 h [1] [µM] | half-life at 2 μM [2] [h] | Ratio: Thrombin/FXIa (Thrombin) | fraction unbound at 4 h, 10 μM [3] | Compound |
| --- | --- | --- | --- | --- |
| > 100 | < 1 | I (“I” indicates >500) | 0.1 to 0.5 | CC[C@@H](NC(=O)N1C(=O)[C@H](Cc2ccnc(N)c2)[C@H]1C(=O)N(C)c1ncncn1)c1ccccc1 [Compound 83] |
| > 100 | 1.02 to 2 | I (“I” indicates >500) | 0.1 to 0.5 | CC[C@@H](NC(=O)N1C(=O)[C@H](Cc2ccnc(N)c2)[C@H]1C(=O)N(C)c1ncccn1)c1ccccc1 [Compound 84] |
| > 100 | 2.02 to 4 | H (“H” indicates 101-1000) | < 0.05 | CC[C@@H](NC(=O)N1C(=O)[C@H](Cc2ccnc(N)c2)[C@H]1C(=O)N(C)c1ccncc1)c1cccc(C)c1 [Compound 87] |
| > 100 | > 4 | H (“H” indicates 101-1000) | 0.05 to 0.09 | CC[C@@H](NC(=O)N1C(=O)[C@H](Cc2ccnc(N)c2)[C@H]1C(=O)N(C)c1ccncc1)c1ccc(Cl)cc1 [Compound 89] |
| > 100 | 2.02 to 4 | H (“H” indicates 101-1000) | < 0.05 | CC[C@@H](NC(=O)N1C(=O)[C@H](Cc2ccnc(N)c2)[C@H]1C(=O)N(C)c1ccncc1)c1cccc(Cl)c1 [Compound 90] |
| > 100 | 2.02 to 4 | H (“H” indicates 101-1000) | 0.05 to 0.09 | CC[C@@H](NC(=O)N1C(=O)[C@H](Cc2ccnc(N)c2)[C@H]1C(=O)N(C)c1ccncc1)c1ccccc1Cl [Compound 95] |
| > 100 | > 4 | H (“H” indicates 101-1000) | 0.1 to 0.5 | CC[C@@H](NC(=O)N1C(=O)[C@H](Cc2ccnc(N)c2)[C@H]1C(=O)N(C)c1ccncc1)c1cccc(C#N)c1 [Compound 99] |
| > 100 | > 4 | H (“H” indicates 101-1000) | 0.1 to 0.5 | CC[C@@H](NC(=O)N1C(=O)[C@H](Cc2ccnc(N)c2)[C@H]1C(=O)N(C)c1ccncc1)c1cccc(OC)c1 [Compound 100] |
| 10 to 100 (≈ 5.2 to 52 µg/mL) | 2.02 to 4 | H (“H” indicates 101-1000) | < 0.05 | CC[C@@H](NC(=O)N1C(=O)[C@H](Cc2cc(C)nc(N)c2)[C@H]1C(=O)N(C)c1ccccc1)c1cccc(Cl)c1 [Compound 120] |
| > 100 | < 1 | H (“H” indicates 101-1000) | 0.05 to 0.09 | CC[C@@H](NC(=O)N1C(=O)[C@H](Cc2ccnc(N)c2)[C@H]1C(=O)N(C)c1ncccn1)c1cccc(Cl)c1 [Compound 121] |
